Where two headings read alike, the source gives them in different places.
How the values were obtained:
monkey NPR1 = monkey NPR1 (Macaca fascicularis, UniProt A0A7N9DBT9); test: Cellular cGMP production assay, monkey NPR1 expressing CHO-K1 cells (CisBio HTRF); format: cell-based; conditions: for Monkey NPR1 Amax (% of ANP): maximum cGMP production as percentage of the maximum cGMP produced with ANP
Procedure, shortened: (§1)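 CHO-K1 cells expressing human or cynomolgus NPR1 treated with compound (12-point, 3-fold dilutions from 30 μM top) in PBS+0.1% BSA with 1 mM IBMX, 30 min at 37° C. After lysis, cGMP quantified by HTRF competition (cGMP-d2/anti-cGMP-cryptate, 1 h RT, 665 nm emission) against a calibrator standard curve.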

human NPR1 = biological target: T1, human NPR1 (Homo sapiens, UniProt P16066); test: Cellular cGMP production assay, human NPR1 expressing CHO-K1 cells (CisBio HTRF); format: cell-based; conditions: for AC50: cGMP production, 30 min at 37° C., 12-point dose-response from 30 μM; for Human NPR1 Amax (% of ANP): maximum cGMP production as percentage of the maximum cGMP produced with ANP
T1 construct: host or cells: CHO-K1
T1 sequence (P16066 33-1061): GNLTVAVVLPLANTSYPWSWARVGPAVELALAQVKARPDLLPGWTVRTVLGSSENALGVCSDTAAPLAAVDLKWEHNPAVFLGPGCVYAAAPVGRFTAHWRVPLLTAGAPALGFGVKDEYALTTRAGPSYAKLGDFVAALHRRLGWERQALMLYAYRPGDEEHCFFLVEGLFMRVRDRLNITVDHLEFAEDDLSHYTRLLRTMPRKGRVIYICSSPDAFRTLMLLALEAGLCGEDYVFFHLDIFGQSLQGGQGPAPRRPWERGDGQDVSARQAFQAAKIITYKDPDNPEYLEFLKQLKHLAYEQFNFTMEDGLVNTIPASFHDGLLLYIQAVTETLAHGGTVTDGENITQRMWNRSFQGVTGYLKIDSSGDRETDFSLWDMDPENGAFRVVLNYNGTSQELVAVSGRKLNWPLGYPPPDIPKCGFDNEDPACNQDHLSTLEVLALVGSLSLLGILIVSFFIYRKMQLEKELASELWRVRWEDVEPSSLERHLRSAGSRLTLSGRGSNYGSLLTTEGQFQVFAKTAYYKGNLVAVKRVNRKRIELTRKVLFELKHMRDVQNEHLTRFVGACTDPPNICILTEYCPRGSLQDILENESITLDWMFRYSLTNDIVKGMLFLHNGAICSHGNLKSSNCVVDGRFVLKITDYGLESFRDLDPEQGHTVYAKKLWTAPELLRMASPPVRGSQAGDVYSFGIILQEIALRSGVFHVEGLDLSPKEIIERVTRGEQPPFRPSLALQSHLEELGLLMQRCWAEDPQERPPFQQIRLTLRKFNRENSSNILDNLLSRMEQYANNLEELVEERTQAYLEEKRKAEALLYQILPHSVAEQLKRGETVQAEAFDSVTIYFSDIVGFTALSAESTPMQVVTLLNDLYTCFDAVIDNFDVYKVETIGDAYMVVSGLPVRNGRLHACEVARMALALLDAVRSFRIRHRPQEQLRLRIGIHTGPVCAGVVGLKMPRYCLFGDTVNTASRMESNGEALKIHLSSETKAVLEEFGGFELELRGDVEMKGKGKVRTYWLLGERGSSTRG
Procedure, shortened: as §1

[1] = cGMP production, monkey NPR1 CHO-K1 cells, 30 min at 37° C., 12-point dose-response from 30 μM, read-out: Monkey NPR1 AC50

monkey NPR1, sequence (A0A7N9DBT9 entry or part of it): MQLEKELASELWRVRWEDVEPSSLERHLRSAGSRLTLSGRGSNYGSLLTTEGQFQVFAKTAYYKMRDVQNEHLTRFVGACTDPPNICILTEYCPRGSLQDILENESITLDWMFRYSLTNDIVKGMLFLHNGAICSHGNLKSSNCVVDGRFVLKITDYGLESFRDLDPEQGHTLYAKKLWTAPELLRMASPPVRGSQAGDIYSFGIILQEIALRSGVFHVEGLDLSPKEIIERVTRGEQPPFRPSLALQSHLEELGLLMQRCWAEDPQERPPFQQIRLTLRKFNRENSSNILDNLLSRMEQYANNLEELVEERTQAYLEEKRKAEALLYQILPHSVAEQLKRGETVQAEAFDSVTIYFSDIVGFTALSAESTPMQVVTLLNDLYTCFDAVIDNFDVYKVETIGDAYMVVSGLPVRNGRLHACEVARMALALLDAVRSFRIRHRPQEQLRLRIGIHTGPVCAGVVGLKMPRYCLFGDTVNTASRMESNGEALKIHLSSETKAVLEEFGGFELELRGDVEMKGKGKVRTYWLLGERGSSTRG

Row | Compound | AC50 (monkey NPR1; [1]) [µM] | Monkey NPR1 Amax (% of ANP) (monkey NPR1; monkey NPR1 CHO-K1 cells) | AC50 (human NPR1) [µM] | Human NPR1 Amax (% of ANP) (human NPR1) | AC50 (monkey NPR1) [µM]
1 | CC[C@@H](Nc1nc2c(c(N[C@@H](CN3CC4CCC3C4)c3ccccc3)n1)C[C@H](c1ccccc1)CC2)[C@H]1CC[C@H](C(=O)O)CC1 (stereo partly drawn) [Compound 160, (1R,4r)-4-((1R)-1-(((6R)-4-(((1R)-2-(2-azabicyclo[2.2.1]heptan-2-yl)-1-phenylethyl)amino)-6-phenyl-5,6,7,8-tetrahydroquinazolin-2-yl)amino)propyl)cyclohexane-1-carboxylic acid] | 1.43 | 102.098 % of ANP | 1.62 | 94.868 % of ANP | 
2 | CC[C@H]([C@H]1CC[C@H](C(=O)O)CC1)N(C)c1nc2c(c(N[C@@H](CN3CCC[C@H](C)C3)c3ccnn3C)n1)C[C@H](c1cccc(F)c1)CC2 [Compound 161, (1R,4r)-4-((R)-1-(((R)-6-(3-fluorophenyl)-4-(((S)-1-(1-methyl-1H-pyrazol-5-yl)-2-((S)-3-methylpiperidin-1-yl)ethyl)amino)-5,6,7,8-tetrahydroquinazolin-2-yl)(methyl)amino)propyl)cyclohexane-1-carboxylic acid] | 0.989 | 97.242 % of ANP | 1.68 | 108.479 % of ANP | 
3 | CC[C@H]([C@H]1CC[C@H](C(=O)O)CC1)N(C)c1nc2c(c(N[C@@H](CN3CCCC4(CCOC4)C3)c3cnn(CC)c3)n1)C[C@H](c1ccccc1)CC2 (stereo partly drawn) [Compound 162, (1R,4r)-4-((1R)-1-(((6R)-4-(((1R)-1-(1-ethyl-1H-pyrazol-4-yl)-2-(2-oxa-7-azaspiro[4.5]decan-7-yl)ethyl)amino)-6-phenyl-5,6,7,8-tetrahydroquinazolin-2-yl)(methyl)amino)propyl)cyclohexane-1-carboxylic acid] | 1.31 | 89.971 % of ANP | 1.7 | 83.721 % of ANP | 
4 | CC[C@H]([C@H]1CC[C@H](C(=O)O)CC1)N(C)c1nc2c(c(N[C@@H](CN3CCC[C@H](O)C3)c3cnn(CC)c3)n1)C[C@H](c1cccc(F)c1)CC2 [Compound 163, (1R,4r)-4-((R)-1-(((R)-4-(((R)-1-(1-ethyl-1H-pyrazol-4-yl)-2-((S)-3-hydroxypiperidin-1-yl)ethyl)amino)-6-(3-fluorophenyl)-5,6,7,8-tetrahydroquinazolin-2-yl)(methyl)amino)propyl)cyclohexane-1-carboxylic acid] | 1.27 | 102.145 % of ANP | 1.71 | 103.903 % of ANP | 
5 | CC[C@H]([C@H]1CC[C@H](C(=O)O)CC1)N(C)c1nc2c(c(N[C@@H](CN3C4CCCC3CC4)c3ccnn3C)n1)C[C@H](c1cccc(F)c1)CC2 [Compound 164, (1R,4r)-4-((1R)-1-(((6R)-4-(((1S)-2-(8-azabicyclo[3.2.1]octan-8-yl)-1-(1-methyl-1H-pyrazol-5-yl)ethyl)amino)-6-(3-fluorophenyl)-5,6,7,8-tetrahydroquinazolin-2-yl)(methyl)amino)propyl)cyclohexane-1-carboxylic acid] |  | 92.193 % of ANP | 1.78 | 94.088 % of ANP | 0.946
6 | CC[C@@H](Nc1nc2c(c(N[C@@H](CN(C)C)c3ccccc3)n1)C[C@H](c1ccccc1)CC2)[C@H]1CC[C@H](C(=O)O)CC1 [Compound 165, (1R,4r)-4-((R)-1-(((R)-4-(((R)-2-(dimethylamino)-1-phenylethyl)amino)-6-phenyl-5,6,7,8-tetrahydroquinazolin-2-yl)amino)propyl)cyclohexane-1-carboxylic acid] | 1.08 | 87.861 % of ANP | 1.81 | 90.595 % of ANP | 
7 | CC[C@@H](Nc1nc2c(c(N[C@@H](CNC3CCOCC3)c3ccccc3)n1)C[C@H](c1ccccc1)CC2)[C@H]1CC[C@H](C(=O)O)CC1 [Compound 166, (1R,4r)-4-((R)-1-(((R)-6-phenyl-4-(((R)-1-phenyl-2-((tetrahydro-2H-pyran-4-yl)amino)ethyl)amino)-5,6,7,8-tetrahydroquinazolin-2-yl)amino)propyl)cyclohexane-1-carboxylic acid] | 1.98 | 96.913 % of ANP | 2 | 101.913 % of ANP | 
8 | CC[C@H]([C@H]1CC[C@H](C(=O)O)CC1)N(C)c1nc2c(c(N[C@@H](CN3CCCCC3)c3cnn(CC(F)(F)F)c3)n1)C[C@H](c1ccccc1)CC2 [Compound 167, (1R,4r)-4-((R)-1-(methyl((R)-6-phenyl-4-(((R)-2-(piperidin-1-yl)-1-(1-(2,2,2-trifluoroethyl)-1H-pyrazol-4-yl)ethyl)amino)-5,6,7,8-tetrahydroquinazolin-2-yl)amino)propyl)cyclohexane-1-carboxylic acid] | 1.43 | 98.847 % of ANP | 2.09 | 112.087 % of ANP | 
9 | C[C@@H](Nc1nc2c(c(N[C@@H](CN3C4CCCC3CCC4)c3cnn(C)c3)n1)C[C@H](c1ccccc1)CC2)c1ccc(C(=O)O)c(F)c1 [Compound 168, 4-((R)-1-(((R)-4-(((R)-2-((1S,5S)-9-azabicyclo[3.3.1]nonan-9-yl)-1-(1-methyl-1H-pyrazol-4-yl)ethyl)amino)-6-phenyl-5,6,7,8-tetrahydroquinazolin-2-yl)amino)ethyl)-2-fluorobenzoic acid] |  | 93.654 % of ANP | 2.23 | 96.777 % of ANP | 1.54
10 | CC[C@H]([C@H]1CC[C@H](C(=O)O)CC1)N(C)c1nc2c(c(N[C@@H](CN3C4CCCC3COC4)c3cnn(C)c3)n1)C[C@H](c1ccccc1)CC2 [Compound 169, (1R,4r)-4-((R)-1-(((R)-4-(((R)-2-((1R,5S)-3-oxa-9-azabicyclo[3.3.1]nonan-9-yl)-1-(1-methyl-1H-pyrazol-4-yl)ethyl)amino)-6-phenyl-5,6,7,8-tetrahydroquinazolin-2-yl)(methyl)amino)propyl)cyclohexane-1-carboxylic acid] |  | 96.574 % of ANP | 2.67 | 67.375 % of ANP | 1.92
11 | CC[C@H]([C@H]1CC[C@H](C(=O)O)CC1)N(C)c1nc2c(c(N[C@@H](CN3CCC[C@H](C)C3)c3cnn(C)c3)n1)CN(c1cccc(Cl)c1)CC2 [Compound 170, (1R,4r)-4-((R)-1-((6-(3-chlorophenyl)-4-(((R)-1-(1-methyl-1H-pyrazol-4-yl)-2-((S)-3-methylpiperidin-1-yl)ethyl)amino)-5,6,7,8-tetrahydropyrido[4,3-d]pyrimidin-2-yl)(methyl)amino)propyl)cyclohexane-1-carboxylic acid] | 0.79 | 124.109 % of ANP | 2.74 | 97.591 % of ANP | 
12 | CC(C)n1cc([C@H](CN2CCCCC2)Nc2nc(N[C@H](C)c3ccc(C(=O)O)cc3)nc3c2C[C@H](c2ccccc2)CC3)cn1 [Compound 171, 4-((R)-1-(((R)-4-(((R)-1-(1-isopropyl-1H-pyrazol-4-yl)-2-(piperidin-1-yl)ethyl)amino)-6-phenyl-5,6,7,8-tetrahydroquinazolin-2-yl)amino)ethyl)benzoic acid] | 2.32 | 83.963 % of ANP | 2.77 | 96.419 % of ANP | 
13 | CC[C@@H](N(C)c1nc2c(c(N[C@@H](CN3C4CCCC3CCC4)c3ccnn3C)n1)C[C@H](c1ccccc1)CC2)C12CC(C(=O)O)(C1)C2 [Compound 172, 3-((R)-1-(((R)-4-(((S)-2-((1R,5R)-9-azabicyclo[3.3.1]nonan-9-yl)-1-(1-methyl-1H-pyrazol-5-yl)ethyl)amino)-6-phenyl-5,6,7,8-tetrahydroquinazolin-2-yl)(methyl)amino)propyl)bicyclo[1.1.1]pentane-1-carboxylic acid] |  | 111.107 % of ANP | 3.68 | 94.632 % of ANP | 2.58

— patent US12129246B1, “Hydroquinazoline derivatives for the treatment of a disease or disorder” (Novartis AG, priority 2023, dated 2024)
